Measured values reported in patent US8987195B2 (priority 2012, dated 2015).

How the values were obtained:
[1] = biological target: HCV NS3/4A protease genotype 1b (Hepatitis C virus genotype 1b, UniProt P26663); test: HCV NS3/4A protease time-resolved fluorescence (TRF) assay, Ki against genotype 1b; format: biochemical; conditions: IC50 [gt-1b] (nM), NS3/4A genotype 1b, enzyme 0.2 nM
How it was run: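 Ki values come from IC50 fits corrected for substrate concentration and KM. The time-resolved fluorescence protease reaction used 25 nM peptide substrate, 2.5 h, room temperature, pH 7.5 HEPES buffer, after 30 min enzyme–inhibitor preincubation.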

HCV genotype 1b replicon = test: HCV replicon assay, genotype 1b replicon EC50; format: cell-based, Hepatitis C virus; conditions: Hepatitis C virus, genotype 1b replicon; read-out: EC50 [gt-1b]
How it was run: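 Cells harbouring a stable replicon are grown under G418 selection, then plated with test compound in G418-free medium for 24-48 hours. After washing and lysis, RNA or luciferase signal is measured and expressed as percent of DMSO control to give EC50.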

Chain of HCV NS3/4A protease genotype 1b (P26663 1027-1657): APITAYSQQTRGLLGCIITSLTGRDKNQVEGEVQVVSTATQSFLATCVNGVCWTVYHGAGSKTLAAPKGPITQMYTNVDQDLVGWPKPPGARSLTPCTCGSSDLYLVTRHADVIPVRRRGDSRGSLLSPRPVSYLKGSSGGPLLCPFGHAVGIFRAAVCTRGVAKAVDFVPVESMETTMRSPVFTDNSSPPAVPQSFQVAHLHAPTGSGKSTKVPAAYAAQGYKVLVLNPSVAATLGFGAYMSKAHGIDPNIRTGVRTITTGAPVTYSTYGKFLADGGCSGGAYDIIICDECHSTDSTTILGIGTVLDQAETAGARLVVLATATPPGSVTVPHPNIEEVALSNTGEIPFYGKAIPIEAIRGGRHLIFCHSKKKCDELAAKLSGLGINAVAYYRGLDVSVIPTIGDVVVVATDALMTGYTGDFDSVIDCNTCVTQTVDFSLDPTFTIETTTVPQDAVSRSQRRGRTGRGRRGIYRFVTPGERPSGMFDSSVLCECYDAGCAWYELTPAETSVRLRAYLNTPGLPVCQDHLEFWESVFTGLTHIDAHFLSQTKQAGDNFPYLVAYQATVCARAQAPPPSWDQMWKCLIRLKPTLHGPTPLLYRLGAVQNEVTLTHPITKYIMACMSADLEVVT
Chain of HCV NS3/4A protease genotype 1b (P26663 1658-1711): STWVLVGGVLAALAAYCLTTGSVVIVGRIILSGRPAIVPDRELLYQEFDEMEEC

Row | Structure (SMILES) | IC50 [1] [nM] | EC50 (HCV genotype 1b replicon) [nM]
1 | CC(C)(C)OC(=O)N[C@H]1CCCCC/C=C\[C@@H]2C[C@@]2(C(=O)NS(=O)(=O)C2(C)CC2)NC(=O)[C@@H]2C[C@@]3(CCc4c(ccc5ccccc45)O3)CN2C1=O [Example 72, tert-butyl [(3S,6′S,12′Z,13a′S,14a′R,16a′S)-14a′-{[(1-methylcyclopropyl)sulfonyl]carbamoyl}-5′,16′-dioxo-1,1′,2,5′,6′,7′,8′,9′,10′,11′,13a′,14′,14a′,15′,16′,16a′-hexadecahydrospiro[benzo[f]chromene-3,2′-cyclopropa[e]pyrrolo[1,2-a][1,4]diazacyclopentadecin]-6′-yl]carbamate] | 0.665 | 24.2
2 | CC(C)(C)OC(=O)N[C@H]1CCCCC/C=C\[C@@H]2C[C@@]2(C(=O)NS(=O)(=O)C2(C)CC2)NC(=O)[C@@H]2C[C@]3(CCc4c(ccc5ccccc45)O3)CN2C1=O [Example 73, tert-butyl [(3R,6′S,12′Z,13a′S,14a′R,16a′S)-14a′-{[(1-methylcyclopropyl)sulfonyl]carbamoyl}-5′,16′-dioxo-1,1′,2,5′,6′,7′,8′,9′,10′,11′,13a′,14′,14a′,15′,16′,16a′-hexadecahydrospiro[benzo[f]chromene-3,2′-cyclopropa[e]pyrrolo[1,2-a][1,4]diazacyclopentadecin]-6′-yl]carbamate] | 0.12 | 1.71
3 | Cc1nc2ccccc2c2c1O[C@@]1(CC2)C[C@H]2C(=O)N[C@]3(C(=O)NS(=O)(=O)C4(C)CC4)C[C@H]3/C=C\CCCCC[C@H](NC(=O)OC(C)(C)C)C(=O)N2C1 [Example 75, tert-butyl [(2S,6S,12Z,13aS,14aR,16a5)-5′-methyl-14a-{[(1-methylcyclopropyl)sulfonyl]carbamoyl}-5,16-dioxo-1,1′,2′,5,6,7,8,9,10,11,13a,14,14a,15,16,16a-hexadecahydrospiro[cyclopropa[e]pyrrolo[1,2-a][1,4]diazacyclopentadecine-2,3′-pyrano[2,3-c]quinolin]-6-yl]carbamate] | 0.022 | 7.36
4 | CC(C)NC(=O)N[C@H]1CCCCC/C=C\[C@@H]2C[C@@]2(C(=O)NS(=O)(=O)C2(C)CC2)NC(=O)[C@@H]2C[C@]3(CCc4c(c(-c5cccc(F)c5)nc5ccccc45)O3)CN2C1=O [Example 85, (2R,6S,12Z,13aS,14aR,16aS)-5′-(3-fluorophenyl)-N-[(1-methylcyclopropyl)sulfonyl]-5,16-dioxo-6-[(propan-2-ylcarbamoyl)amino]-1,1′,2′,6,7,8,9,10,11,13a,14,15,16,16a-tetradecahydrospiro[cyclopropa[e]pyrrolo[1,2-a][1,4]diazacyclopentadecine-2,3′-pyrano[2,3-c]quinoline]-14a(5R)-carboxamide] | 0.013 | 1.31
5 | Cc1ccc2nc(C)c3c(c2c1)CC[C@]1(C[C@H]2C(=O)N[C@]4(C(=O)NS(=O)(=O)C5CC5)C[C@H]4/C=C\CCCCC[C@H](NC(=O)OC(C)(C)C)C(=O)N2C1)O3 [Example 87, tert-butyl {(2R,6S,12Z,13aS,14aR,16aS)-14a-[(cyclopropylsulfonyl)carbamoyl]-5′,9′-dimethyl-5,16-dioxo-1,1′,2′,5,6,7,8,9,10,11,13a,14,14a,15,16,16a-hexadecahydrospiro[cyclopropa[e]pyrrolo[1,2-a][1,4]diazacyclopentadecine-2,3′-pyrano[2,3-c]quinolin]-6-yl}carbamate] | 0.01 | 5.87
6 | COC(=O)N[C@H]1CCCCC/C=C\[C@@H]2C[C@@]2(C(=O)NS(=O)(=O)C2(C)CC2)NC(=O)[C@@H]2C[C@]3(CCc4c(c(-c5cccc(F)c5)nc5ccccc45)O3)CN2C1=O [Example 88, methyl [(2R,6S,12Z,13aS,14aR,16aS)-5′-(3-fluorophenyl)-14a-{[(1-methylcyclopropyl)sulfonyl]carbamoyl}-5,16-dioxo-1,1′,2′,5,6,7,8,9,10,11,13a,14,14a,15,16,16a-hexadecahydrospiro[cyclopropa[e]pyrrolo[1,2-a][1,4]diazacyclopentadecine-2,3′-pyrano[2,3-c]quinolin]-6-yl]carbamate] | 0.202 | 0.582
7 | COc1ccc2nc(C3CC3)c3c(c2c1)CC[C@]1(C[C@H]2C(=O)N[C@]4(C(=O)NS(=O)(=O)C5(C)CC5)C[C@H]4/C=C\CCCCC[C@H](NC(=O)NC(C)(C)C)C(=O)N2C1)O3 [Example 90, (2R,6S,12Z,13aS,14aR,16aS)-6-[(tert-butylcarbamoyl)amino]-5′-cyclopropyl-9′-methoxy-N-[(1-methylcyclopropyl)sulfonyl]-5,16-dioxo-1,1′,2′,6,7,8,9,10,11,13a,14,15,16,16a-tetradecahydrospiro[cyclopropa[e]pyrrolo[1,2-a][1,4]diazacyclopentadecine-2,3′-pyrano[2,3-c]quinoline]-14a(5H)-carboxamide] | 0.006 | 1.15
8 | COc1ccc2nc(C3CC3)c3c(c2c1)CC[C@]1(C[C@H]2C(=O)N[C@]4(C(=O)NS(=O)(=O)C5(C)CC5)C[C@H]4/C=C\CCCCC[C@H](NC(=O)OC4CCCC4)C(=O)N2C1)O3 [Example 91, cyclopentyl [(2R,6S,12Z,13aS,14aR,16aS)-5′-cyclopropyl-9′-methoxy-14a-{[(1-methylcyclopropyl)sulfonyl]carbamoyl}-5,16-dioxo-1,1′,2′,5,6,7,8,9,10,11,13a,14,14a,15,16,16a-hexadecahydrospiro[cyclopropa[e]pyrrolo[1,2-a][1,4]diazacyclopentadecine-2,3′-pyrano[2,3-c]quinolin]-6-yl]carbamate] | 0.009 | 0.46
9 | COc1ccc2nc(C3CC3)c3c(c2c1)CC[C@]1(C[C@H]2C(=O)N[C@]4(C(=O)NS(=O)(=O)C5(C)CC5)C[C@H]4/C=C\CCCCC[C@H](NC(=O)OC4(C)CC4)C(=O)N2C1)O3 [Example 92, 1-methylcyclopropyl [(2R,6S,12Z,13aS,14aR,16aS)-5′-cyclopropyl-9′-methoxy-14a-{[(1-methylcyclopropyl)sulfonyl]carbamoyl}-5,16-dioxo-1,1′,2′,5,6,7,8,9,10,11,13a,14,14a,15,16,16a-hexadecahydrospiro[cyclopropa[e]pyrrolo[1,2-a][1,4]diazacyclopentadecine-2,3′-pyrano[2,3-c]quinolin]-6-yl]carbamate] | 0.01 | 0.44
10 | COc1ccc2nc(C3CC3)c3c(c2c1)CC[C@]1(C[C@H]2C(=O)N[C@]4(C(=O)NS(=O)(=O)C5(C)CC5)C[C@H]4/C=C\CCCCC[C@H](NC(=O)NC4CCCC4)C(=O)N2C1)O3 [Example 93, (2R,6S,12Z,13aS,14aR,16aS)-6-[(cyclopentylcarbamoyl)amino]-5′-cyclopropyl-9′-methoxy-N-[(1-methylcyclopropyl)sulfonyl]-5,16-dioxo-1,1′,2′,6,7,8,9,10,11,13a,14,15,16,16a-tetradecahydrospiro[cyclopropa[e]pyrrolo[1,2-a][1,4]diazacyclopentadecine-2,3′-pyrano[2,3-c]quinoline]-14a(5H)-carboxamide] | 0.007 | 3.4
11 | COc1ccc2nc(C3CC3)c3c(c2c1)CC[C@]1(C[C@H]2C(=O)N[C@]4(C(=O)NS(=O)(=O)C5(C)CC5)C[C@H]4/C=C\CCCCC[C@H](NC(=O)OC(C)C)C(=O)N2C1)O3 [Example 94, propan-2-yl [(2R,6S,12Z,13aS,14aR,16aS)-5′-cyclopropyl-9′-methoxy-14a-{[(1-methylcyclopropyl)sulfonyl]carbamoyl}-5,16-dioxo-1,1′,2′,5,6,7,8,9,10,11,13a,14,14a,15,16,16a-hexadecahydrospiro[cyclopropa[e]pyrrolo[1,2-a][1,4]diazacyclopentadecine-2,3′-pyrano[2,3-c]quinolin]-6-yl]carbamate] | 0.003 | 0.61
12 | Cc1nc2c(C(F)(F)F)cccc2c2c1O[C@]1(CC2)C[C@H]2C(=O)N[C@]3(C(=O)NS(=O)(=O)C4CC4)C[C@H]3/C=C\CCCCC[C@H](NC(=O)OC(C)(C)C)C(=O)N2C1 [Example 95, tert-butyl [(2R,6S,12Z,13aS,14aR,16aS)-14a-[(cyclopropylsulfonyl)carbamoyl]-5′-methyl-5,16-dioxo-7′-(trifluoromethyl)-1,1′,2′,5,6,7,8,9,10,11,13a,14,14a,15,16,16a-hexadecahydrospiro[cyclopropa[e]pyrrolo[1,2-a][1,4]diazacyclopentadecine-2,3′-pyrano[2,3-c]quinolin]-6-yl]carbamate] | 0.993 | 5.24
13 | Cc1nc2ccccc2c2c1O[C@]1(CC2)C[C@H]2C(=O)N[C@]3(C(=O)NS(=O)(=O)C4(C)CC4)C[C@H]3/C=C\CCCCC[C@H](NC(=O)OC3CCCC3)C(=O)N2C1 [Example 96, cyclopentyl [(2R,6S,12Z,13aS,14aR,16aS)-5′-methyl-14a-{[(1-methylcyclopropyl)sulfonyl]carbamoyl}-5,16-dioxo-1,1′,2′,5,6,7,8,9,10,11,13a,14,14a,15,16,16a-hexadecahydrospiro[cyclopropa[e]pyrrolo[1,2-a][1,4]diazacyclopentadecine-2,3′-pyrano[2,3-c]quinolin]-6-yl]carbamate] | 0.01 | 0.796
14 | Cc1nc2ccccc2c2c1O[C@]1(CC2)C[C@H]2C(=O)N[C@]3(C(=O)NS(=O)(=O)C4(C)CC4)C[C@H]3/C=C\CCCCC[C@H](NC(=O)OCC(C)C)C(=O)N2C1 [Example 97, 2-methylpropyl [(2R,6S,12Z,13aS,14aR,16aS)-5′-methyl-14a-{[(1-methylcyclopropyl)sulfonyl]carbamoyl}-5,16-dioxo-1,1′,2′,5,6,7,8,9,10,11,13a,14,14a,15,16,16a-hexadecahydrospiro[cyclopropa[e]pyrrolo[1,2-a][1,4]diazacyclopentadecine-2,3′-pyrano[2,3-c]quinolin]-6-yl]carbamate] | 0.016 | 1.94
